US9409952B2, “Peptide-compound cyclization method” (Chugai Seiyaku Kabushiki Kaisha, priority 2011, dated 2016)
Starred links: 1 amine or outer side, 2 acyl side, 3 side chain; linkers in the order of their positions; H or OH if unused. Positions of bridges follow the written chain, without caps; N, C: chain ends. Non-standard residues stand in square brackets, D forms with d. Residues, ends and D or L forms follow the SMILES beside them. *: point of attachment. Phe(4-(CH2)5CO) = O=C([C@H](Cc1ccc(CCCCCC(=O)[*:3])cc1)N[*:1])[*:2]; Phe(3-(CH2)4CO) = O=C([C@H](Cc1cccc(CCCCC(=O)[*:3])c1)N[*:1])[*:2]; NMeF = CN[C@@H](Cc1ccccc1)C(=O)O; NMeI = CC[C@H](C)[C@H](NC)C(=O)O; NMeL = CN[C@@H](CC(C)C)C(=O)O; NMeV = CN[C@H](C(=O)O)C(C)C; NMeA = CN[C@@H](C)C(=O)O; Piperidide = C1CCN(*)CC1; NPrGly = CCCNCC(=O)O; Sar = CNCC(=O)O; tBu = CC(C)(C)*

experiment: Metabolic stability in human hepatic microsome; assay type: in vitro ADME; settings: microsomes, pH 7.4; human hepatic microsome, NADPH(+); read-out: CL NADPH(+)

Row | Structure (SMILES) | microsomal CLint at 1 uM
1 | C=C1CCC(=O)N(C)[C@@H](Cc2ccccc2)C(=O)N[C@@H](CC(C)C)C(=O)N(C)[C@@H](CC(C)C)C(=O)N[C@@H]([C@@H](C)O)C(=O)N(C)CC(=O)N(C)[C@@H]([C@@H](C)CC)C(=O)N[C@@H](COC(C)(C)C)C(=O)N(C)[C@@H](Cc2ccccc2)C(=O)N(C)[C@@H](C(C)C)C(=O)N[C@H](C(=O)N2CCCCC2)Cc2cccc1c2 [DP-851] | 99 µL/min/mg
2 | CC[C@H](C)[C@H]1C(=O)N[C@@H](COC(C)(C)C)C(=O)N(C)[C@@H](Cc2ccccc2)C(=O)N(C)[C@@H](C(C)C)C(=O)N[C@H](C(=O)N2CCCCC2)Cc2cccc(c2)CCCCC(=O)N(C)[C@@H](Cc2ccccc2)C(=O)N[C@@H](CC(C)C)C(=O)N(C)[C@@H](CC(C)C)C(=O)N[C@@H]([C@@H](C)O)C(=O)N(C)CC(=O)N1C [DP-853] ([NMeF]L[NMeL]T[Sar][NMeI]S(tBu)[NMeF][NMeV][Phe(3-(CH2)4CO)]-Piperidide; lactam N-10) | 120 µL/min/mg
3 | C=C1CCC(=O)N[C@@H](CC(C)C)C(=O)N(C)[C@@H](CC(C)C)C(=O)N(C)[C@@H](Cc2ccccc2)C(=O)N[C@@H](C)C(=O)N(C)[C@@H](Cc2ccccc2)C(=O)N(C)[C@@H]([C@@H](C)CC)C(=O)N[C@@H]([C@@H](C)O)C(=O)N(C)CC(=O)N(C)[C@@H](CC(C)C)C(=O)N[C@H](C(=O)N2CCCCC2)Cc2ccc1cc2 [DP-854] | 252 µL/min/mg
4 | C=C1CCC(=O)N[C@@H](CC(C)C)C(=O)N(C)[C@@H](CC(C)C)C(=O)N(C)[C@@H](Cc2ccccc2)C(=O)N[C@@H](C)C(=O)N(C)[C@@H](Cc2ccccc2)C(=O)N(C)[C@@H]([C@@H](C)CC)C(=O)N[C@@H]([C@@H](C)O)C(=O)N(C)CC(=O)N(C)[C@@H](CC(C)C)C(=O)N[C@H](C(=O)N2CCCCC2)Cc2cccc1c2 [DP-855] | 210 µL/min/mg
5 | CC[C@H](C)[C@H]1C(=O)N[C@@H]([C@@H](C)O)C(=O)N(C)CC(=O)N(C)[C@@H](CC(C)C)C(=O)N[C@H](C(=O)N2CCCCC2)Cc2cccc(c2)CCCCC(=O)N[C@@H](CC(C)C)C(=O)N(C)[C@@H](CC(C)C)C(=O)N(C)[C@@H](Cc2ccccc2)C(=O)N[C@@H](C)C(=O)N(C)[C@@H](Cc2ccccc2)C(=O)N1C [DP-857] (L[NMeL][NMeF]A[NMeF][NMeI]T[Sar][NMeL][Phe(3-(CH2)4CO)]-Piperidide; lactam N-10) | 284 µL/min/mg
6 | CC(C)C[C@H]1C(=O)N(C)[C@@H](CC(C)C)C(=O)N[C@@H](C)C(=O)N(C)[C@@H](CC(C)C)C(=O)N(C)[C@@H](Cc2ccccc2)C(=O)N(C)[C@@H](Cc2ccccc2)C(=O)N[C@@H]([C@@H](C)O)C(=O)N(C)[C@@H](C)C(=O)N(C)[C@@H](CC(C)C)C(=O)N[C@H](C(=O)N2CCCCC2)Cc2cccc(c2)CCCCC(=O)N1C [DP-859] ([NMeL][NMeL]A[NMeL][NMeF][NMeF]T[NMeA][NMeL][Phe(3-(CH2)4CO)]-Piperidide; lactam N-10) | 87 µL/min/mg
7 | CC[C@H](C)[C@H]1C(=O)N(C)[C@@H](C)C(=O)N(C)[C@@H](Cc2ccccc2)C(=O)N[C@@H]([C@@H](C)O)C(=O)N(C)[C@@H](Cc2ccccc2)C(=O)N(C)[C@@H](CC(C)C)C(=O)N2CCC[C@H]2C(=O)N[C@H](C(=O)N2CCCCC2)Cc2cccc(c2)CCCCC(=O)NCC(=O)N(C)[C@@H](CC(C)C)C(=O)N1C [DP-860] (G[NMeL][NMeI][NMeA][NMeF]T[NMeF][NMeL]P[Phe(3-(CH2)4CO)]-Piperidide; lactam N-10) | 322 µL/min/mg
8 | C=C1CCC(=O)N[C@@H](CC(C)C)C(=O)N2CCC[C@H]2C(=O)N[C@@H]([C@@H](C)O)C(=O)N(C)CC(=O)N[C@@H](Cc2ccccc2)C(=O)N(C)[C@@H](C(C)C)C(=O)N(C)[C@@H](C)C(=O)N[C@@H](CC(C)C)C(=O)N(C)[C@@H](CC(C)C)C(=O)N[C@H](C(=O)N2CCCCC2)Cc2cccc1c2 [DP-866] | 211 µL/min/mg
9 | CCCN1CC(=O)N(C)[C@@H](Cc2ccccc2)C(=O)N[C@@H](C)C(=O)N(C)[C@@H](Cc2ccccc2)C(=O)N(C)[C@@H](CC(C)C)C(=O)N(C)[C@@H]([C@@H](C)CC)C(=O)N(C)[C@@H](CC(C)C)C(=O)N[C@H](C(=O)N2CCCCC2)Cc2cccc(c2)CCCCC(=O)N[C@@H](CC(C)C)C(=O)N[C@@H]([C@@H](C)O)C1=O [DP-867] (LT[NPrGly][NMeF]A[NMeF][NMeL][NMeI][NMeL][Phe(3-(CH2)4CO)]-Piperidide; lactam N-10) | 211 µL/min/mg
10 | C=C1CCC(=O)N[C@@H](CC(C)C)C(=O)N2CCC[C@H]2C(=O)N(C)[C@@H](C(C)C)C(=O)N[C@@H](Cc2ccccc2)C(=O)N(C)[C@@H](Cc2ccccc2)C(=O)N(C)[C@@H](CC(C)C)C(=O)N[C@@H](C)C(=O)N(C)[C@@H]([C@@H](C)CC)C(=O)N[C@H](C(=O)N2CCCCC2)Cc2cccc1c2 [DP-870] | 474 µL/min/mg
11 | C=C1CCC(=O)N[C@@H](C(C)C)C(=O)N(C)[C@@H](C)C(=O)N(C)[C@@H](CC(C)C)C(=O)N[C@@H](CC(C)C)C(=O)N[C@@H](Cc2ccccc2)C(=O)N(C)[C@@H](Cc2ccccc2)C(=O)N[C@@H]([C@@H](C)CC)C(=O)N2CCC[C@H]2C(=O)N[C@@H]([C@@H](C)O)C(=O)N(C)[C@@H](CC(C)C)C(=O)N[C@H](C(=O)N2CCCCC2)Cc2cccc1c2 [DP-884] | 64 µL/min/mg
12 | C=C1CCC(=O)N[C@@H](CC(C)C)C(=O)N[C@@H](C(C)C)C(=O)N(C)[C@@H](CC(C)C)C(=O)N[C@@H](Cc2ccccc2)C(=O)N(C)[C@@H](Cc2ccccc2)C(=O)N[C@@H]([C@@H](C)CC)C(=O)N(C)[C@@H](C)C(=O)N[C@@H](CC(C)C)C(=O)N[C@@H]([C@@H](C)O)C(=O)N[C@H](C(=O)N2CCCCC2)Cc2cccc1c2 [DP-890] | 47 µL/min/mg
13 | CC[C@H](C)[C@@H]1NC(=O)[C@H](Cc2ccccc2)N(C)C(=O)[C@H](Cc2ccccc2)NC(=O)[C@H](CC(C)C)N(C)C(=O)[C@H](C(C)C)NC(=O)[C@H](CC(C)C)NC(=O)[C@H](C)N(C)C(=O)CNC(=O)CCCCCc2ccc(cc2)C[C@@H](C(=O)N2CCCCC2)NC(=O)[C@H]([C@@H](C)O)NC(=O)[C@H](CC(C)C)NC(=O)[C@H](C)N(C)C1=O [DP-891] (G[NMeA]LV[NMeL]F[NMeF]I[NMeA]LT[Phe(4-(CH2)5CO)]-Piperidide; lactam N-12) | 100 µL/min/mg
14 | CC[C@H](C)[C@@H]1NC(=O)[C@H](Cc2ccccc2)N(C)C(=O)[C@H](Cc2ccccc2)NC(=O)[C@H](CC(C)C)N(C)C(=O)[C@H](C(C)C)NC(=O)[C@H](CC(C)C)NC(=O)CCCCCc2ccc(cc2)C[C@@H](C(=O)N2CCCCC2)NC(=O)[C@H]([C@@H](C)O)NC(=O)[C@H](CC(C)C)NC(=O)[C@H](C)N(C)C1=O [DP-892] (LV[NMeL]F[NMeF]I[NMeA]LT[Phe(4-(CH2)5CO)]-Piperidide; lactam N-10) | 57 µL/min/mg
15 | CC[C@H](C)[C@H]1C(=O)N[C@@H](Cc2ccccc2)C(=O)N(C)[C@@H](Cc2ccccc2)C(=O)N[C@@H]([C@@H](C)O)C(=O)N2CCC[C@H]2C(=O)N[C@@H](CC(C)C)C(=O)N[C@H](C(=O)N2CCCCC2)Cc2ccc(cc2)CCCCCC(=O)N[C@@H](C(C)C)C(=O)N(C)CC(=O)N[C@@H](CC(C)C)C(=O)N(C)[C@@H](CC(C)C)C(=O)N[C@@H](C)C(=O)N1C [DP-895] (V[Sar]L[NMeL]A[NMeI]F[NMeF]TPL[Phe(4-(CH2)5CO)]-Piperidide; lactam N-12) | 54 µL/min/mg
16 | C=C1CCC(=O)N[C@@H](CC(C)C)C(=O)N[C@@H](Cc2ccccc2)C(=O)N[C@@H]([C@@H](C)O)C(=O)N[C@@H](CC(C)C)C(=O)N(C)[C@@H](C)C(=O)N[C@@H](Cc2ccccc2)C(=O)NCC(=O)N[C@@H](C(C)C)C(=O)N[C@@H](CC(C)C)C(=O)N[C@@H](C)C(=O)N(C)[C@@H](CC(C)C)C(=O)N[C@H](C(=O)N2CCCCC2)Cc2ccc1cc2 [DP-898] | 21 µL/min/mg
17 | C=C1CCC(=O)N[C@@H](C(C)C)C(=O)N(C)[C@@H](CC(C)C)C(=O)N(C)CC(=O)N(C)[C@@H](CC(C)C)C(=O)N(C)[C@@H]([C@@H](C)CC)C(=O)N[C@@H](C)C(=O)N(C)[C@@H](Cc2ccccc2)C(=O)N(C)[C@@H](Cc2ccccc2)C(=O)N[C@@H]([C@@H](C)O)C(=O)N(C)[C@@H](CC(C)C)C(=O)N2CCC[C@H]2C(=O)N[C@H](C(=O)N2CCCCC2)Cc2cccc1c2 [DP-899] | 32 µL/min/mg
18 | CC[C@H](C)[C@@H]1NC(=O)[C@H](Cc2ccccc2)N(C)C(=O)[C@H](CC(C)C)N(C)C(=O)[C@H](CC(C)C)NC(=O)[C@H](C)NC(=O)[C@H](C(C)C)N(C)C(=O)CNC(=O)CCCCCc2ccc(cc2)C[C@@H](C(=O)N2CCCCC2)NC(=O)[C@H](CC(C)C)N(C)C(=O)[C@H]([C@@H](C)O)NC(=O)[C@@H]2CCCN2C(=O)[C@H](Cc2ccccc2)NC1=O [DP-902] (G[NMeV]AL[NMeL][NMeF]IFPT[NMeL][Phe(4-(CH2)5CO)]-Piperidide; lactam N-12) | 121 µL/min/mg
19 | CC[C@H](C)[C@H](NC(=O)[C@H](CC(C)C)N(C)C(=O)[C@H](Cc1ccccc1)N(C)C(=O)[C@@H]1CC(=O)N(C)[C@@H](C)C(=O)N[C@@H](C(C)C)C(=O)N[C@@H](C)C(=O)N[C@@H](CC(C)C)C(=O)N(C)[C@@H](Cc2ccccc2)C(=O)N[C@@H](CC(C)C)C(=O)N[C@@H]([C@@H](C)O)C(=O)N1)C(=O)N1CCCCC1 [DP-932] ([NMeA]VAL[NMeF]LTD[NMeF][NMeL]I-Piperidide; lactam N-8) | 108 µL/min/mg
20 | CC[C@H](C)[C@H](NC(=O)[C@H](CC(C)C)NC(=O)[C@H](CC(C)C)N(C)C(=O)[C@@H]1CC(=O)N[C@H](C(C)C)C(=O)N[C@@H](CC(C)C)C(=O)N(C)[C@@H](CC(C)C)C(=O)N[C@@H]([C@@H](C)O)C(=O)N[C@@H](C(C)C)C(=O)N(C)[C@@H](CC(C)C)C(=O)N(C)[C@@H](Cc2ccccc2)C(=O)N1)C(=O)N1CCCCC1 [DP-933] ([dV]L[NMeL]TV[NMeL][NMeF]D[NMeL]LI-Piperidide; lactam N-8) | 43 µL/min/mg
21 | CC[C@H](C)[C@H](NC(=O)[C@H](CC(C)C)N(C)C(=O)[C@H](CC(C)C)NC(=O)[C@@H]1CC(=O)N[C@@H](C)C(=O)N(C)[C@@H](Cc2ccccc2)C(=O)N(C)[C@@H](CC(C)C)C(=O)N(C)[C@@H](CC(C)C)C(=O)N[C@@H](Cc2ccccc2)C(=O)N[C@@H]([C@@H](C)O)C(=O)N[C@@H](C(C)C)C(=O)N1)C(=O)N1CCCCC1 [DP-934] (A[NMeF][NMeL][NMeL]FTVDL[NMeL]I-Piperidide; lactam N-8) | 143 µL/min/mg
